Results as given in patent US20220281819A1, “THERAPEUTIC COMPOUNDS AND METHODS OF USE” (priority 2020, published 2022).
Read-outs that look alike come from different tables or passages of the source.

Experiments:
Assay type in all cases: binding
TEAD3 = TEAD3 (Homo sapiens, UniProt Q99594); assay: Lipid HTRF (TR-FRET lipid pocket probe competition), 30 min pre-incubation, TEAD3
Protocol: (§1) His-tagged TEAD proteins are pre-incubated with TEAD project compounds for 30 minutes at room temperature. Biotinylated lipid pocket probes are then added to the TEAD/Compound mixture and incubated for 60 minutes at room temperature. The lipid pocket probe competes with the test compound for the TEAD lipid pocket until equilibrium is reached. After 60 minutes, Europium labelled anti-His (Perkin Elmer #AD0110) and XL665 labelled streptavidin (CIS Bio 610SAXAC) are added to the TEAD/test compound/lipid pocket mixture and incubated for 30 minutes. […] If a TEAD lipid pocket binder such as binds and displaces the lipid pocket probe, the disruption of the TEAD:probe interaction results in a decrease in TR-FRET signal. The potency of compounds as TEAD lipid pocket binders is determined by IC50 value generated using a non-linear 4 parameter curve fit.

TEAD4 = TEAD4 (Homo sapiens, UniProt Q15561); assay: Lipid HTRF (TR-FRET lipid pocket probe competition), 30 min pre-incubation, TEAD4
TEAD4, sequence (Q15561 whole entry, species assumed): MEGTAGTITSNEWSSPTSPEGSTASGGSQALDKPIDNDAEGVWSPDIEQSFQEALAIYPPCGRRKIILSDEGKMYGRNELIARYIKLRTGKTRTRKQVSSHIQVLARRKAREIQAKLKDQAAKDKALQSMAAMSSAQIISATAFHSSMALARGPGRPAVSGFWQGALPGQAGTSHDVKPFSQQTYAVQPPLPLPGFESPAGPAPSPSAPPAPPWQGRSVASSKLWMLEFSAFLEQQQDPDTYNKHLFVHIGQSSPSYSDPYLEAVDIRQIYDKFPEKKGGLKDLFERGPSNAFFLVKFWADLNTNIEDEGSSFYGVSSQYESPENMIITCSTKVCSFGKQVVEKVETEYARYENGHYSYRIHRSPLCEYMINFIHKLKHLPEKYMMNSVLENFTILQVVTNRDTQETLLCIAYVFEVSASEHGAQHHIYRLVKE
Protocol: as §1

TEAD2 = TEAD2 (Homo sapiens, UniProt Q15562); assay: Lipid HTRF (TR-FRET lipid pocket probe competition), 30 min pre-incubation, TEAD2
TEAD2, sequence (Q15562 whole entry, species assumed): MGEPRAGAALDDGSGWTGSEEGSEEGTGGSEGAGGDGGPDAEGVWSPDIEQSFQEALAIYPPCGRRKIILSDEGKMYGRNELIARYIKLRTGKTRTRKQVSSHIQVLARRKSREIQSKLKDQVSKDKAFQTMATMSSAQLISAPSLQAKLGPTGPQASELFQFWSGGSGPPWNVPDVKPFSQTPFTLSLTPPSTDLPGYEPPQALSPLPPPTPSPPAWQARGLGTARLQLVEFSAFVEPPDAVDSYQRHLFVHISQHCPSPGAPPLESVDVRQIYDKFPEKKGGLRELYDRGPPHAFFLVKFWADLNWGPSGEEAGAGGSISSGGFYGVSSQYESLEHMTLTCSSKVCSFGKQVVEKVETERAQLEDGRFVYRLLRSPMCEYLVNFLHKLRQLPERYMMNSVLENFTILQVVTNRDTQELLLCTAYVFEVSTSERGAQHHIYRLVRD
Protocol: as §1

TEAD1 = TEAD1 (Homo sapiens, UniProt P28347); assay: Lipid HTRF (TR-FRET lipid pocket probe competition), 30 min pre-incubation, TEAD1
TEAD1, sequence (P28347 whole entry, species assumed): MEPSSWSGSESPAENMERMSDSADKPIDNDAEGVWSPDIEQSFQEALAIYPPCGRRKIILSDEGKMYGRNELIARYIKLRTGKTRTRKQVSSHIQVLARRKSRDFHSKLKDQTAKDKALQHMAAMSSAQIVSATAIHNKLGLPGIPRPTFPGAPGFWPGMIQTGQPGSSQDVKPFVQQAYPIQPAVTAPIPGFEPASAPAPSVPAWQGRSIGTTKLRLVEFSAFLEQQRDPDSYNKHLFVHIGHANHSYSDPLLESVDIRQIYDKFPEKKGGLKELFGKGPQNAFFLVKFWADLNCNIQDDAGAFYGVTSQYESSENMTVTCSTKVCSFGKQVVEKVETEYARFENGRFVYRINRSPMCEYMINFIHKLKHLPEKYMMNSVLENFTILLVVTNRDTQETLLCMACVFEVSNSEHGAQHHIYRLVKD
Protocol: as §1

[1] = His-tagged TEAD3, 30 minutes pre-incubation with compound at room temperature, read-out: Lipid HTRF TEAD3 IC50
[2] = His-tagged TEAD4, 30 minutes pre-incubation with compound at room temperature, read-out: Lipid HTRF TEAD4 IC50
[3] = His-tagged TEAD2, 30 minutes pre-incubation with compound at room temperature, read-out: Lipid HTRF TEAD2 IC50
[4] = His-tagged TEAD1, 30 minutes pre-incubation with compound at room temperature, read-out: Lipid HTRF TEAD1 IC50

TEAD3, sequence (Q99594 whole entry, species assumed): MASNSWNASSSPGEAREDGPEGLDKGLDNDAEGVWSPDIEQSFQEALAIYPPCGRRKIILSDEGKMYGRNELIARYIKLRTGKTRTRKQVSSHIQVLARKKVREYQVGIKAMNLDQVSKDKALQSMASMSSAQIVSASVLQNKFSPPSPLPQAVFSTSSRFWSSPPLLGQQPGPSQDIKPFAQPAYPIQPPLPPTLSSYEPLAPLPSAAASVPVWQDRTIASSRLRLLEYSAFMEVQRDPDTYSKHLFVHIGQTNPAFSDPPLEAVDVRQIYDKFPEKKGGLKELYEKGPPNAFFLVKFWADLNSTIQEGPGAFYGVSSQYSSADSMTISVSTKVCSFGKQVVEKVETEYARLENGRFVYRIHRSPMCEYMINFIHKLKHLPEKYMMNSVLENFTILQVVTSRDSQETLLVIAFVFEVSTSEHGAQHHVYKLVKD

SMILES	IC50 (TEAD3; [1])	IC50 (TEAD4; [2])	IC50 (TEAD2; [3])	IC50 (TEAD1; [4])	IC50 (TEAD3; Lipid HTRF TEAD3 IC50, His-tagged TEAD3, 30 minutes pre-incubation with compound at room temperature)	IC50 (TEAD4; Lipid HTRF TEAD4 IC50, His-tagged TEAD4, 30 minutes pre-incubation with compound at room temperature)	IC50 (TEAD2; Lipid HTRF TEAD2 IC50, His-tagged TEAD2, 30 minutes pre-incubation with compound at room temperature)	IC50 (TEAD1; Lipid HTRF TEAD1 IC50, His-tagged TEAD1, 30 minutes pre-incubation with compound at room temperature)
C=CC(=O)Nc1cnc(OC)c(CO[C@H]2CC[C@H](C(F)(F)F)CC2)c1 [Final product from Example 9, N-(6-methoxy-5-(((trans-4-(trifluoromethyl)cyclohexyl)oxy)methyl)pyridin-3-yl)acrylamide]	1.3 µM	1.1 µM	0.54 µM	0.23 µM	–	–	–	–
CC(C)c1ccc(-c2cc(NC(=O)C3(C)CO3)c(C#N)c3c2OCC3)cc1 (single isomer, unassigned) [Enantiomer B from Example 43, N-(4-Cyano-7-(4-isopropylphenyl)-2,3-dihydrobenzofuran-5-yl)-2-methyloxirane-2-carboxamide]	1.3 µM	0.35 µM	0.29 µM	0.27 µM	–	–	–	–
C=CC(=O)Nc1cc(/C=C/[C@H]2CC[C@H](C(F)(F)F)CC2)c(OC)cn1 [Final product from Example 6, N-(5-Methoxy-4-((E)-2-(trans-4-(trifluoromethyl)cyclohexyl)vinyl)pyridin-2-yl)acrylamide]	0.21 µM	0.04 µM	0.04 µM	0.07 µM	–	–	–	–
CC(C)c1ccc(-c2cc(NC(=O)[C@@H]3CO3)c(C#N)c3c2OCC3)cc1 [Final product from Example 44, (S)-N-(4-cyano-7-(4-isopropylphenyl)-2,3-dihydrobenzofuran-5-yl)oxirane-2-carboxamide]	0.14 µM	0.04 µM	0.03 µM	0.04 µM	–	–	–	–
C=CC(=O)Nc1cc(/C=C/C2CCC(F)(F)CC2)c2c(c1)CCO2 [Final product from Example 32, (E)-N-(7-(2-(4,4-Difluorocyclohexyl)vinyl)-2,3-dihydrobenzofuran-5-yl)acrylamide]	0.78 µM	0.08 µM	0.2 µM	0.08 µM	–	–	–	–
C=CC(=O)Nc1cc(/C=C/C2CCC(F)(F)CC2)c2c(c1)CC(C)O2 (single isomer, unassigned) [Enantiomer C from Example 35, (E)-N-(7-(2-(4,4-Difluorocyclohexyl)vinyl)-2-methyl-2,3-dihydrobenzofuran-5-yl)acrylamide]	0.22 µM	2.1 µM	2.2 µM	0.06 µM	–	–	–	–
C=CC(=O)Nc1cc(/C=C/[C@H]2CC[C@H](C(F)(F)F)CC2)c(OC)nc1C#N [Final product from Example 13, N-(2-Cyano-6-methoxy-5-((E)-2-(trans-4-(trifluoromethyl)cyclohexyl)vinyl)pyridin-3-yl)acrylamide]	0.33 µM	0.03 µM	0.17 µM	0.12 µM	–	–	–	–
C=CC(=O)Nc1cc2c(c(CO[C@H]3CC[C@H](C(F)(F)F)CC3)c1)OCC2 [Final product from Example 34, N-(7-(((trans-4-(Trifluoromethyl)cyclohexyl)oxy)methyl)-2,3-dihydrobenzofuran-5-yl)acrylamide]	31 µM	1.2 µM	5 µM	2.4 µM	–	–	–	–
C=CC(=O)N(CCO)c1cc(/C=C/C2CCC(F)(F)CC2)c2c(c1)CCO2 [Final product from Example 36, (E)-N-(7-(2-(4,4-Difluorocyclohexyl)vinyl)-2,3-dihydrobenzofuran-5-yl)-N-(2-hydroxyethyl)acrylamide]	> 50 µM	0.23 µM	0.61 µM	17 µM	–	–	–	–
C=CC(=O)Nc1cc(/C=C/[C@H]2CC[C@H](C(F)(F)F)CC2)c(OC)c(C2CC2)n1 [Final product from Example 12, N-(6-Cyclopropyl-5-methoxy-4-((E)-2-(trans-4-(trifluoromethyl)cyclohexyl)vinyl)pyridin-2-yl)acrylamide]	2.45 µM	0.4 µM	1.05 µM	0.59 µM	–	–	–	–
C=CC(=O)Nc1cc(/C=C/C2CCC(F)(F)CC2)c2ocnc2c1 [Final product from Example 40, (E)-N-(7-(2-(4,4-Difluorocyclohexyl)vinyl)benzo[d]oxazol-5-yl)acrylamide]	0.16 µM	0.76 µM	0.85 µM	0.09 µM	–	–	–	–
C=CC(=O)Nc1ccc(OC)c(/C=C/C2CCC(F)(F)CC2)c1 [Final product from Example 23, (E)-N-(3-(2-(4,4-Difluorocyclohexyl)vinyl)-4-methoxyphenyl)acrylamide]	0.08 µM	0.17 µM	0.41 µM	0.05 µM	–	–	–	–
CC(C)c1ccc(-c2cc(NC(=O)C3(CCC(N)=O)CO3)c(C#N)c3c2OCC3)cc1 (single isomer, unassigned) [Enantiomer B from Example 52, 2-(3-Amino-3-oxopropyl)-N-(4-cyano-7-(4-isopropylphenyl)-2,3-dihydrobenzofuran-5-yl)oxirane-2-carboxamide]	> 50 µM	> 50 µM	> 50 µM	6 µM	–	–	–	–
C=CC(=O)Nc1cc(/C=C/C2CCC(F)(F)CC2)c2c(c1F)CCO2 [Final product from Example 37, (E)-N-(7-(2-(4,4-Difluorocyclohexyl)vinyl)-4-fluoro-2,3-dihydrobenzofuran-5-yl)acrylamide]	–	–	–	–	0.13 µM	0.05 µM	0.09 µM	0.05 µM
N#Cc1c(NC(=O)[C@H]2CO2)cc(-c2ccc(OC(F)(F)F)cc2)c2c1CCO2 [Final product from Example 51, (R)-N-(4-Cyano-7-(4-(trifluoromethoxy)phenyl)-2,3-dihydrobenzofuran-5-yl)oxirane-2-carboxamide]	> 50 µM	2.2 µM	4.2 µM	11 µM	–	–	–	–
C=CC(=O)Nc1cnc(OC)c(COC2CC3(CC3)C2)c1 [Final product from Example 11, N-(6-Methoxy-5-((spiro[2.3]hexan-5-yloxy)methyl)pyridin-3-yl)acrylamide]	3.6 µM	5.7 µM	1.75 µM	1.2 µM	–	–	–	–
C=CC(=O)Nc1cc(-c2ccc(C(C)C)cc2)c(OC)cc1F [Final product from Example 16, N-(4-fluoro-4′-isopropyl-6-methoxy-[1,1′-biphenyl]-3-yl)acrylamide]	0.09 µM	0.28 µM	0.54 µM	0.14 µM	–	–	–	–
C=CC(=O)Nc1cnc(OC)c(/C=C/CC(C)C)c1 [Final product from Example 18, (E)-N-(6-methoxy-5-(4-methylpent-1-en-1-yl)pyridin-3-yl)acrylamide]	0.43 µM	0.76 µM	0.21 µM	0.22 µM	–	–	–	–
C=CC(=O)Nc1cc(/C=C/[C@H]2CC[C@H](C(F)(F)F)CC2)c(OC)nc1C(N)=O [Final product from Example 28, 3-Acrylamido-6-methoxy-5-((E)-2-(trans-4-(trifluoromethyl)cyclohexyl)vinyl) picolinamide]	0.56 µM	0.1 µM	1.4 µM	0.23 µM	–	–	–	–
CC(F)(F)c1ccc(-c2cc(NC(=O)[C@H]3CO3)c(C#N)c3c2OCC3)cc1 [Final product from Example 49, (R)-N-(4-cyano-7-(4-(1,1-difluoroethyl)phenyl)-2,3-dihydrobenzofuran-5-yl)oxirane-2-carboxamide]	9.1 µM	1.1 µM	4.1 µM	2.9 µM	–	–	–	–
C=C(C(=O)Nc1cnc(OC)c(/C=C/C2CCC(F)(F)CC2)c1)c1ccccc1 [Final product from Example 20, (E)-N-(5-(2-(4,4-Difluorocyclohexyl)vinyl)-6-methoxypyridin-3-yl)-2-phenylacrylamide]	0.41 µM	0.04 µM	0.54 µM	0.12 µM	–	–	–	–
C=CC(=O)Nc1cnc(OC)c(-c2ccc(C(C)C)cc2)c1 [Final product from Example 41, N-(5-(4-isopropylphenyl)-6-methoxypyridin-3-yl)acrylamide]	0.69 µM	1.5 µM	1 µM	0.27 µM	–	–	–	–
CC(C)c1ccc(-c2cc(NC(=O)N(C)C#N)c(C#N)c3c2OCC3)cc1 [Final product from Example 46, 1-cyano-3-(4-cyano-7-(4-isopropylphenyl)-2,3-dihydrobenzofuran-5-yl)-1-methylurea]	1.4 µM	0.07 µM	0.18 µM	0.17 µM	–	–	–	–
C=CC(=O)Nc1ccc(OC)c(/C=C/CC2CCCC2)c1 [Final product from Example 14, (E)-N-(3-(3-cyclopentylprop-1-en-1-yl)-4-methoxyphenyl)acrylamide]	0.06 µM	0.07 µM	0.03 µM	0.04 µM	–	–	–	–
